Data: patent US11420969B2 (Exonate Limited, priority 2017, dated 2022)

Experiments:
CYP1A2 = biological target: T1, CYP1A2 (Homo sapiens, UniProt P05177); test: CYP inhibition assay, human liver microsomes, substrate tacrine; assay type: in vitro ADME; conditions: human liver microsomes, 10 min incubation, LC-MS/MS; read-out: CYP Inhibition Activity (IC50/nM) CYP1A2
T1 construct: from tissue; host or cells: human liver microsomes
T1 sequence (P05177 1-516): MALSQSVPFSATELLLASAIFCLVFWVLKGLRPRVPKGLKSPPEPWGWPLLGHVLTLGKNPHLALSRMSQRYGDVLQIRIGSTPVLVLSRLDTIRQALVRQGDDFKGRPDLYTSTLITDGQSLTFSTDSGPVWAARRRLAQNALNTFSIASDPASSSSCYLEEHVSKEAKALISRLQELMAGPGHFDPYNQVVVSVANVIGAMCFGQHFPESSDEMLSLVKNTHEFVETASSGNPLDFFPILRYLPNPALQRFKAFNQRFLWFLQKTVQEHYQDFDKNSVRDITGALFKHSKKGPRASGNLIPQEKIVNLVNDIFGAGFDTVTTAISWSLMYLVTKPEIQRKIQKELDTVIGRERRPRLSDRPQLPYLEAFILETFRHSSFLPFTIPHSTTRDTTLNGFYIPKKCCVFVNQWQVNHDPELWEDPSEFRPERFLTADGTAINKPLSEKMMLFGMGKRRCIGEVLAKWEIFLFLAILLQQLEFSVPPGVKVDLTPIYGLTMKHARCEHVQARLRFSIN
In short: (§1)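 Inhibition was determined with all substrates combined as a cocktail, a 20 min compound pre-incubation and a 10 min NADPH reaction at 37 °C. IC50 was calculated from LC-MS/MS data.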

CYP2C19 = biological target: T2, CYP2C19 (Homo sapiens, UniProt P33261); test: CYP inhibition assay, human liver microsomes, substrate S-mephenytoin; assay type: in vitro ADME; conditions: human liver microsomes, 10 min incubation, LC-MS/MS; read-out: CYP Inhibition Activity (IC50/nM) CYP2C19
T2 construct: from tissue; host or cells: human liver microsomes
In short: as §1

SRPK1 = SRPK1 (Homo sapiens, UniProt Q96SB4); test: In vitro SRPK1 assay (Kinase-Glo); assay type: biochemical
CYP3A4 = biological target: T3, CYP3A4 (Homo sapiens, UniProt P08684); test: CYP inhibition assay, human liver microsomes, substrate midazolam; assay type: in vitro ADME; conditions: human liver microsomes, 10 min incubation, LC-MS/MS; read-out: CYP Inhibition Activity (IC50/nM) CYP3A4
T3 construct: from tissue; host or cells: human liver microsomes
In short: as §1

CYP2C9 = biological target: T4, CYP2C9 (Homo sapiens, UniProt P11712); test: CYP inhibition assay, human liver microsomes, substrate diclofenac; assay type: in vitro ADME; conditions: human liver microsomes, 10 min incubation, LC-MS/MS; read-out: CYP Inhibition Activity (IC50/nM) CYP2C9
T4 construct: from tissue; host or cells: human liver microsomes
In short: as §1

CYP2D6 = biological target: T5, CYP2D6 (Homo sapiens, UniProt P10635); test: biochemical; assay type: in vitro ADME
T5 construct: from tissue; host or cells: human liver microsomes
In short: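 Human liver microsomes (0.253 mg/mL working stock) pre-incubated with compound and substrate pool at 37° C for 20 min. Reaction started with NADPH and run 10 min at 37° C, stopped with cold ACN. Metabolite analysed by LC-MS/MS; % inhibition and IC50 calculated versus inhibitor-free control.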

T4 sequence (P11712 whole entry): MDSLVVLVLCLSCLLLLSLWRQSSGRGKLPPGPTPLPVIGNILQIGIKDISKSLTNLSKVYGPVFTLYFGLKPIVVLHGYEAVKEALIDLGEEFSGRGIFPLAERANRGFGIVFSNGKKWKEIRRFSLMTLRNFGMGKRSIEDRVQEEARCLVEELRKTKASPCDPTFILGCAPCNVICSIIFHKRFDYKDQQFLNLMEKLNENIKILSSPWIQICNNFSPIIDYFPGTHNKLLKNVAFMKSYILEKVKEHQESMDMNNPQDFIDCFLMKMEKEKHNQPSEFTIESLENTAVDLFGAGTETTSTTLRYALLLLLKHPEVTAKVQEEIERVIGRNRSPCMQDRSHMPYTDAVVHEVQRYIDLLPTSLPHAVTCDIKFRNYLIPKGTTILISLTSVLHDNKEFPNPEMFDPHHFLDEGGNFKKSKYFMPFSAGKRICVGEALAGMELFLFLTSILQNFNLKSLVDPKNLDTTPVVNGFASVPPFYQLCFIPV
T3 sequence (P08684 whole entry): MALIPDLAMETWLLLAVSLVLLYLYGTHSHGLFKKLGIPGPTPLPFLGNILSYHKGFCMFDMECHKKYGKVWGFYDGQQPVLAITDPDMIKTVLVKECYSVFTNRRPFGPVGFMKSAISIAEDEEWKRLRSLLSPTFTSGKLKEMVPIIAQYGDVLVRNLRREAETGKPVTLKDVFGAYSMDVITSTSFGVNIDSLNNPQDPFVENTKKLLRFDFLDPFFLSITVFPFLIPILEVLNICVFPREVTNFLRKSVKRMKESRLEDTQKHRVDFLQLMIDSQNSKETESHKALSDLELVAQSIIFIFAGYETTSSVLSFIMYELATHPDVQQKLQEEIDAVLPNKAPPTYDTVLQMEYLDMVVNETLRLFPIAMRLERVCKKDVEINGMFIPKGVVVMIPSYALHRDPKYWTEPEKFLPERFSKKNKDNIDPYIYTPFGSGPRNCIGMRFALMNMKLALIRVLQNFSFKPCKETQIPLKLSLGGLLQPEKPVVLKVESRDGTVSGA
T2 sequence (P33261 whole entry): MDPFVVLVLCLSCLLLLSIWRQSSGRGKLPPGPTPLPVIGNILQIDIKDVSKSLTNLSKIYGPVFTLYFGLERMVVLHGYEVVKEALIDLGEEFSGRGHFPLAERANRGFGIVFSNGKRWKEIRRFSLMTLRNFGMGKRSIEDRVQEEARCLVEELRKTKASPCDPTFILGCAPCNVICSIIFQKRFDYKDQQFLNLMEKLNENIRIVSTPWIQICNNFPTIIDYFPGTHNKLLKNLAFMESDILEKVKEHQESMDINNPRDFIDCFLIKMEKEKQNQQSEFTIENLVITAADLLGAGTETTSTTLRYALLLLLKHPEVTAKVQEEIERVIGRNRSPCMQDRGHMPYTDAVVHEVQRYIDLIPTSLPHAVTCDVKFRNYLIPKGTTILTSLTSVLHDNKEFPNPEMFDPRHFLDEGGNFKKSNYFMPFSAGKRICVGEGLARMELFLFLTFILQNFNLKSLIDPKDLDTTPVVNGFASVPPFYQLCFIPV
T5 sequence (P10635 whole entry): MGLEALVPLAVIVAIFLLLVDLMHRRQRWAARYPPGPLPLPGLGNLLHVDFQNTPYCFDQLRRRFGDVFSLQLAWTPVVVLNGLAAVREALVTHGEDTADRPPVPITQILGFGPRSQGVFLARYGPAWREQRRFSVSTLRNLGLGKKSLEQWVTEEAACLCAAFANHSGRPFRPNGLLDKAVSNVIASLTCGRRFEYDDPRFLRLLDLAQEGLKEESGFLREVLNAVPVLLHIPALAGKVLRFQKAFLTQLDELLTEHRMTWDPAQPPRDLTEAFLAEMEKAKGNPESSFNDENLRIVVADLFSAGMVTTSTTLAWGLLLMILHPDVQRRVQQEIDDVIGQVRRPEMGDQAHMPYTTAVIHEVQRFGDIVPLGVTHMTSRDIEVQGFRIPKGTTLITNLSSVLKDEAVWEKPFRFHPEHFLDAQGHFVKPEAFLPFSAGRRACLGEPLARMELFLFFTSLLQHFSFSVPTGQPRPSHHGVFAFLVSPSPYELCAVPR
Sequence of SRPK1 (Q96SB4 whole entry, species assumed): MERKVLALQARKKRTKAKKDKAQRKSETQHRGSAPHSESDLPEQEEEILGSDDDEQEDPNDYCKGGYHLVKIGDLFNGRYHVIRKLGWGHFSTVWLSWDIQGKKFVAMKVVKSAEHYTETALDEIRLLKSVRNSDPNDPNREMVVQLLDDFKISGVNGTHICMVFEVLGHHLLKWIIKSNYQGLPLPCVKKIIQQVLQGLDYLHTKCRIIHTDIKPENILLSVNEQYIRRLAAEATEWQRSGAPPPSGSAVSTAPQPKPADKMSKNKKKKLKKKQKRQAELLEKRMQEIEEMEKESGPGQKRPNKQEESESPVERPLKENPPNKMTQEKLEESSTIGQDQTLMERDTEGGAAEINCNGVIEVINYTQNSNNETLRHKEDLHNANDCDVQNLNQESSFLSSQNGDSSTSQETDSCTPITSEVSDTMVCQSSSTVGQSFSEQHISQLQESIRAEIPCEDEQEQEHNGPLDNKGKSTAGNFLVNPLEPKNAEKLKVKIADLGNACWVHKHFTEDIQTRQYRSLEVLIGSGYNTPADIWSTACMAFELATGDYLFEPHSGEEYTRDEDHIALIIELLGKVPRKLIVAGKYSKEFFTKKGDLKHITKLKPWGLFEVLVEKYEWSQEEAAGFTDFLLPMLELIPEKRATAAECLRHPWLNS

IC50 (CYP1A2) [nM] | IC50 (CYP2C19) [nM] | IC50 (SRPK1) [nM] | IC50 (CYP3A4) [nM] | IC50 (CYP2C9) [nM] | IC50 (CYP2D6) [µM] | SMILES
> 30000 | 15100 | 17.4 | 23200 | 7600 | > 30 | Cc1ccc(N2CCC(C)(O)CC2)c(NC(=O)c2ccc(C3CCOCC3)o2)c1 [Example 13, N-(2-(4-hydroxy-4-methylpiperidin-1-yl)-5-methylphenyl)-5-(tetrahydro-2H-pyran-4-yl)furan-2-carboxamide]
19000 | 7700 | 7.3 | 7700 | 3800 | 25.9 | CC1(O)CCN(c2ccc(C(F)F)cc2NC(=O)c2ccc(C3CCOCC3)o2)CC1 [Example 14, N-(5-(difluoromethyl)-2-(4-hydroxy-4-methyl-piperidin-1-yl)phenyl)-5-(tetrahydro-2H-pyran-4-yl)furan-2-carboxamide]
6270 | 7690 | 5.2 | 10600 | 2970 | 19.1 | COc1ccc(N2CCC(C)(O)CC2)c(NC(=O)c2ccc(C3CCOCC3)o2)c1 [Example 15, N-(2-(4-hydroxy-4-methylpiperidin-1-yl)-5-methoxyphenyl)-5-(tetrahydro-2H-pyran-4-yl)furan-2-carboxamide]
26700 | 9550 | 16 | 27300 | 5690 | 10.5 | CC1(O)CCN(c2ccc(OC(F)(F)F)cc2NC(=O)c2ccc(C3CCOCC3)o2)CC1 [Example 16, N-(2-(4-hydroxy-4-methylpiperidin-1-yl)-5-(trifluoromethoxy)phenyl)-5-(tetrahydro-2H-pyran-4-yl)furan-2-carboxamide]
> 30000 | 9570 | 2 | 15200 | 3770 | > 30 | CC1(O)CCN(c2ccc(C3CC3)cc2NC(=O)c2ccc(C3CCOCC3)o2)CC1 [Example 17, N-(5-cyclopropyl-2-(4-hydroxy-4-methylpiperidin-1-yl)phenyl)-5-(tetrahydro-2H-pyran-4-yl)furan-2-carboxamide]
> 30000 | 4910 | 54 | 9800 | 5160 | 15.8 | COC1(C)CCN(c2ccc(C(F)(F)F)cc2NC(=O)c2ccc(C3CCOCC3)o2)CC1 [Example 18, N-(2-(4-methoxy-4-methylpiperidin-1-yl)-5-(trifluoromethyl)-phenyl)-5-(tetrahydro-2H-pyran-4-yl)furan-2-carboxamide]
15300 | 12300 | 39 | 18800 | 12700 | > 30 | O=C(Nc1cc(C(F)(F)F)ccc1N1CCC(O)(Cc2ccccc2)CC1)c1ccc(C2CCOCC2)o1 [Example 19]
> 30000 | > 30000 | 6 | > 30000 | > 30000 | > 30 | CCC1(O)CCN(c2ccc(C(F)(F)F)cc2NC(=O)c2ccc(C3CCOCC3)o2)CC1 [Example 20, N-(2-(4-ethyl-4-hydroxypiperidin-1-yl)-5-(trifluoromethyl)phenyl)-5-(tetrahydro-2H-pyran-4-yl)furan-2-carboxamide]
> 30000 | 6140 | 9 | 20900 | 6350 | 7.14 | O=C(Nc1cc(C(F)(F)F)ccc1N1CCC(O)(C2CC2)CC1)c1ccc(C2CCOCC2)o1 [Example 21, N-(2-(4-cyclopropyl-4-hydroxypiperidin-1-yl)-5-(trifluoromethyl)-phenyl)-5-(tetrahydro-2H-pyran-4-yl)furan-2-carboxamide]
15300 | 12300 | 35 | 18800 | 12700 | > 30 | O=C(Nc1cc(C(F)(F)F)ccc1N1CCC(O)(c2ccccc2)CC1)c1ccc(C2CCOCC2)o1 [Example 22, N-(2-(4-hydroxy-4-phenylpiperidin-1-yl)-5-(trifluoromethyl)-phenyl)-5-(tetrahydro-2H-pyran-4-yl)furan-2-carboxamide]
2510 | 260 | 64 | 2650 | 220 | 0.03 | O=C(Nc1cc(C(F)(F)F)ccc1N1CCC(O)(CC2CC2)CC1)c1ccc(C2CCOCC2)o1 [Example 23, N-(2-(4-(cyclopropylmethyl)-4-hydroxypiperidin-1-yl)-5-(trifluoromethyl)phenyl)-5-(tetrahydro-2H-pyran-4-yl)furan-2-carboxamide]
> 30000 | > 30000 | 2 | > 30000 | > 30000 | > 30 | CC1(CO)CCN(c2ccc(C(F)(F)F)cc2NC(=O)c2ccc(-c3ccncc3)o2)CC1 [Example 24, N-(2-(4-(hydroxymethyl)-4-methylpiperidin-1-yl)-5-(trifluoromethyl)phenyl)-5-(pyridin-4-yl)furan-2-carboxamide]
> 30000 | 15800 | 2 | > 30000 | 4960 | > 30 | CC1(CO)CCN(c2ccc(C(F)(F)F)cc2NC(=O)c2ccc(C3CCOCC3)o2)CC1 [Example 25, N-(2-(4-(hydroxymethyl)-4-methylpiperidin-1-yl)-5-(trifluoromethyl)phenyl)-5-(tetrahydro-2H-pyran-4-yl)furan-2-carboxamide]
> 30000 | 12900 | 5.6 | 4440 | 2150 | > 30 | CC1(C(=O)O)CCN(c2ccc(C(F)(F)F)cc2NC(=O)c2ccc(-c3ccncc3)o2)CC1 [Example 26, 4-methyl-1-(2-(5-(pyridin-4-yl)furan-2-carboxamido)-4-(trifluoromethyl)phenyl)-piperidine-4-carboxylic acid]
> 30000 | > 30000 | 3.6 | > 30000 | 12600 | > 30 | CC1(C(=O)O)CCN(c2ccc(C(F)(F)F)cc2NC(=O)c2ccc(C3CCOCC3)o2)CC1 [Example 27, 4-methyl-1-(2-(5-(tetrahydro-2H-pyran-4-yl)furan-2-carboxamido)-4-(trifluoromethyl)phenyl)-piperidine-4-carboxylic acid]
> 30000 | > 30000 | 15 | > 30000 | > 30000 | > 30 | CC1(C)CCN(c2ccc(C(F)(F)F)cc2NC(=O)c2ccc(-c3ccncc3)o2)CC1 [Example 28, N-(2-(4,4-dimethylpiperidin-1-yl)-5-(trifluoromethyl)phenyl)-5-(pyridin-4-yl)furan-2-carboxamide]
> 30000 | > 30000 | 6 | > 30000 | > 30000 | > 30 | CC1(C)CCN(c2ccc(C(F)(F)F)cc2NC(=O)c2ccc(C3CCOCC3)o2)CC1 [Example 29, N-(2-(4,4-dimethylpiperidin-1-yl)-5-(trifluoromethyl)phenyl)-5-(tetrahydro-2H-pyran-4-yl)furan-2-carboxamide]
2900 | 1100 | 0.8 | 4200 | 1500 | 2.1 | O=C(Nc1cc(C(F)(F)F)ccc1N1CCC(O)CC1)c1ccc(-c2ccncc2)o1 [Example 32, N-(2-(4-hydroxypiperidin-1-yl)-5-(trifluoromethyl)-phenyl)-5-(pyridin-4-yl)furan-2-carboxamide]
10000 | 8100 | 0.9 | > 30000 | 7600 | 15.2 | O=C(Nc1cc(C(F)(F)F)ccc1N1CCC(O)CC1)c1ccc(C2CCOCC2)o1 [Example 33, N-(2-(4-hydroxypiperidin-1-yl)-5-(trifluoromethyl)-phenyl)-5-(tetrahydro-2H-pyran-4-yl)furan-2-carboxamide]
4000 | 4000 | 422 | 7300 | 5600 | 5.5 | CC1CCN(c2ccc(C(F)(F)F)cc2NC(=O)c2ccc(-c3ccncc3)o2)CC1 [Example 34, N-(2-(4-methylpiperidin-1-yl)-5-(trifluoromethyl)-phenyl)-5-(pyridin-4-yl)furan-2-carboxamide]
